{"source": "paper PMC2637447", "about": "(Neuropharmacology, 2008)", "key": {"GluK1": {"target": "GluK1 (Homo sapiens, UniProt P39086)", "sequence (P39086 31-918)": "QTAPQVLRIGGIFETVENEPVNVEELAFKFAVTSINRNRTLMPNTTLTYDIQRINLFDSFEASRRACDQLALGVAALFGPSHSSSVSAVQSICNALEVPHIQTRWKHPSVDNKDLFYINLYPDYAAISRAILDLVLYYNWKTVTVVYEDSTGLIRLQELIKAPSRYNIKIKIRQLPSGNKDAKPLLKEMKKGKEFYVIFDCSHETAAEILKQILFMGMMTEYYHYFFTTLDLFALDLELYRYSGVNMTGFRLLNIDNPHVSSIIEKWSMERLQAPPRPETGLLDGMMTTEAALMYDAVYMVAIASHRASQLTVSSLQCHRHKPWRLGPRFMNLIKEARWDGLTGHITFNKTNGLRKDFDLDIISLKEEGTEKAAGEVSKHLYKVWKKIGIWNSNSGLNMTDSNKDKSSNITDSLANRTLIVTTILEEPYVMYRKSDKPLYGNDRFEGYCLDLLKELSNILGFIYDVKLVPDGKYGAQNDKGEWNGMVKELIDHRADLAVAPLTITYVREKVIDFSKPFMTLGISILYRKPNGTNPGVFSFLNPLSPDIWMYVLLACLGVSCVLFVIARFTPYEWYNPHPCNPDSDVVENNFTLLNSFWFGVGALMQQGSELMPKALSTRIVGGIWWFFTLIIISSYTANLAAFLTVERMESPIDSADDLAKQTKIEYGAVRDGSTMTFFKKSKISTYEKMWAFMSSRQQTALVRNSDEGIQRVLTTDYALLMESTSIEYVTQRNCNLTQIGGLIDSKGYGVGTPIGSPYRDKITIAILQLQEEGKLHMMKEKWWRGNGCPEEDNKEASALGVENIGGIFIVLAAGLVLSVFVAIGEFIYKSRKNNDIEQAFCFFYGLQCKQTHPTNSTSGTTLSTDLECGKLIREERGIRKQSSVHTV", "experiment": "Ca2+ fluorescence assay, antagonism of L-glutamate", "assay_type": "cell-based"}, "GluK3": {"target": "GluK3 (Homo sapiens, UniProt Q13003)", "sequence (Q13003 32-919)": "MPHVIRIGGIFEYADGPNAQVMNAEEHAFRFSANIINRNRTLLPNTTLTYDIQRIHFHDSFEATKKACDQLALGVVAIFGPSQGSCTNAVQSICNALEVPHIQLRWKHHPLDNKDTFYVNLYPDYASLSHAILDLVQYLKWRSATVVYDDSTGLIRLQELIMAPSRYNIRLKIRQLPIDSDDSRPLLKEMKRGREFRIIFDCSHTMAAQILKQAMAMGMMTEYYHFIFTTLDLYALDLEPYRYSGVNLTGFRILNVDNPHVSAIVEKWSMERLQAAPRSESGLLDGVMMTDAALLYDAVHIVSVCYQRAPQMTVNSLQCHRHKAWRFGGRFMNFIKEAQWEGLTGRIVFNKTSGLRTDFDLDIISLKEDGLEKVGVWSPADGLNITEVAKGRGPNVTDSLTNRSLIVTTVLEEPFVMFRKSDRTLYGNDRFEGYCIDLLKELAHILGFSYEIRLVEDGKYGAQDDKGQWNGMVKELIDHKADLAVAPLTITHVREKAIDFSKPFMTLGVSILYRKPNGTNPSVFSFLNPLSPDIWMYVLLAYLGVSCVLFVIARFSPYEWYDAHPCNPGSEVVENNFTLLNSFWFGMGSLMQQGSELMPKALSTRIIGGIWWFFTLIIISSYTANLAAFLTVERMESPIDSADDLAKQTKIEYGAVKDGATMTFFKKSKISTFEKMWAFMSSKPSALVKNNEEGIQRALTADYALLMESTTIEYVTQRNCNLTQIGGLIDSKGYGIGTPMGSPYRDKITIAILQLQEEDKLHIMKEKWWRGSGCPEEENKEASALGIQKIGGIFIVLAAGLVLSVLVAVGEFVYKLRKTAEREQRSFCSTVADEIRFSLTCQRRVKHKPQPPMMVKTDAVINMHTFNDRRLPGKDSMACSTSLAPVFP", "experiment": "whole-cell voltage clamp, % inhibition at […] of […] glutamate currents", "assay_type": "cell-based", "settings": "read-out: % inhibition at 30 μM"}}}
{"compound": "Cc1cn(C[C@H](N)C(=O)O)c(=O)n(Cc2cc(-c3ccccc3)sc2C(=O)O)c1=O", "note": "[ACET, (S)-1-(2-amino-2-carboxyethyl)-3-(2-carboxy-5-phenylthiophene-3-yl-methyl)-5-methylpyrimidine-2,4-dione]", "values": [{"measurement": "Kb", "setting": "GluK1", "result": "1.4 ± 0.2", "unit": "nM"}, {"measurement": "inhibition at 30 µM", "setting": "GluK3", "result": "30 ± 5", "unit": "%"}]}
{"compound": "UBP304", "values": [{"measurement": "Kb", "setting": "GluK1", "result": "110 ± 30", "unit": "nM"}]}
